Assay results reported in US7390806B2, “Antibiotics containing borinic acid complexes and methods of use” (Anacor Pharmaceuticals, Inc., priority 2002, dated 2008).
Values after ≈ are worked out from the molar mass of the structure shown.

Assays:
[1] = test system: M. catarrhalis ATCC 25238; assay: MIC determination, M. catarrhalis ATCC 25238; assay type: cell-based; conditions: for MIC M. catarrhalis ATCC 25238: Table 1; for MIC: Moraxella catarrhalis, ATCC25238, Table 1, read-out: MIC M. catarrhalis ATCC 25238
E. faecalis ATCC 29212 = assay: MIC determination, E. faecalis ATCC 29212; assay type: cell-based, Enterococcus faecalis; conditions: for MIC: Enterococcus faecalis, ATCC29212, Table 1, read-out: MIC E. faecalis ATCC 29212
S. pneumoniae ATCC 6301 = assay: MIC determination, S. pneumoniae ATCC 6301; assay type: cell-based, Streptococcus pneumoniae; conditions: for MIC S. pneumoniae ATCC 6301: Table 1; for MIC: Streptococcus pneumoniae, ATCC6301, Table 1, read-out: MIC S. pneumoniae ATCC 6301
[2] = test system: S. epidermidis ATCC 12228; assay: MIC determination, S. epidermidis ATCC 12228; assay type: cell-based, Staphylococcus epidermidis; conditions: for MIC: Staphylococcus epidermidis, ATCC12228, Table 1, read-out: MIC S. epidermidis ATCC 12228
E. faecium CT-26 = assay: MIC determination, E. faecium CT-26; assay type: cell-based, Enterococcus faecium; conditions: for MIC: Enterococcus faecium, CT26, Table 1, read-out: MIC E. faecium CT-26
S. aureus ATCC 29213 = assay: MIC determination, S. aureus ATCC 29213; assay type: cell-based, Staphylococcus aureus; conditions: for MIC: Staphylococcus aureus, ATCC29213, Table 1, read-out: MIC S. aureus ATCC 29213

| Compound | MIC M. catarrhalis ATCC 25238 [1] [micrograms per ml] | MIC E. faecalis ATCC 29212 (E. faecalis ATCC 29212; Table 1) [micrograms per ml] | MIC S. pneumoniae ATCC 6301 (S. pneumoniae ATCC 6301) [micrograms per ml] | MIC S. epidermidis ATCC 12228 ([2]; Table 1) [micrograms per ml] | MIC E. faecium CT-26 (E. faecium CT-26; Table 1) [micrograms per ml] | MIC S. aureus ATCC 29213 (S. aureus ATCC 29213; Table 1) [micrograms per ml] | further results |
| --- | --- | --- | --- | --- | --- | --- | --- |
| Oc1cccc2cccnc12 [Compound 69, 8-hydroxyquinoline] | 1 | 64 | 2 | 1 | 4 | 2 |  |
| Oc1cccc2cccnc12 [Compound 83, 8-hydroxyquinoline] | 2 | 4 | 2 | 1 | 4 | 2 |  |
| Oc1cccc2cccnc12 [Compound 52, 8-hydroxyquinoline] |  | 8 |  | 4 | 16 | 2 |  |
| Oc1cccc2cccnc12 [Compound 56, 8-hydroxyquinoline] | 4 | 8 | 2 | 2 | 4 | 2 |  |
| Oc1cccc2cccnc12 [Compound 98, 8-hydroxyquinoline] | 1 | 8 | 1 | 1 | 4 | 2 |  |
| Oc1cccc2cccnc12 [Compound 20, 8-hydroxyquinoline] | 2 | 8 | 2 | 1 | 4 | 0.25 |  |
| Oc1cccc2cccnc12 [Compound 99, 8-hydroxyquinoline] | 1 | 8 | 2 | 1 | 2 | 2 |  |
| Oc1cccc2cccnc12 [Compound 38, 8-hydroxyquinoline] | 1 | 16 | 2 | 1 | 2 | 1 |  |
| C=CB(Oc1cccc2cccnc12)c1cccc(C#N)c1 [Compound 40, (3-Cyanophenyl)vinylborinic acid 8-hydroxyquinoline ester] | 2 | 8 | 1 | 1 | 2 | 1 |  |
| Oc1cccc2cccnc12 [Compound 18, 8-hydroxyquinoline] | 1 | 8 | 2 | 1 | 4 | 0.25 |  |
| Oc1cccc2cccnc12 [Compound 77, 8-hydroxyquinoline] | 2 | 8 | 1 | 1 | 4 | 2 |  |
| Oc1cccc2cccnc12 [Compound 91, 8-hydroxyquinoline] | 1 | 8 | 2 | 1 | 2 | 2 |  |
| Oc1cccc2cccnc12 [Compound 90, 8-hydroxyquinoline] | 2 | 8 | 1 | 2 | 2 | 2 |  |
| Oc1cccc2cccnc12 [Compound 39, 8-hydroxyquinoline] | 2 | 8 | 1 | 1 | 2 | 1 |  |
| Oc1cccc2cccnc12 [Compound 15, 8-hydroxyquinoline] | 0.5 | 16 | 2 | 1 | 4 | 0.125 |  |
| Oc1cccc2cccnc12 [Compound 88, 8-hydroxyquinoline] | 2 | 8 | 2 | 2 | 2 | 2 |  |
| O=[N+]([O-])c1ccc(O)c2ncccc12 [Compound 22] |  |  |  |  |  |  | MIC [1]: 0.12 µg/mL (≈ 0.631 µM); MIC (E. faecalis ATCC 29212): 64 µg/mL (≈ 337 µM); MIC (S. pneumoniae ATCC 6301): 2 µg/mL (≈ 10.5 µM); MIC [2]: 4 µg/mL (≈ 21 µM); MIC (E. faecium CT-26): 16 µg/mL (≈ 84.1 µM); MIC (S. aureus ATCC 29213): 0.5 µg/mL (≈ 2.63 µM) |
| Bis(ethynyl)borinic acid 8-Hydroxyquinoline [Compound 44] | 0.25 | 16 | 1 | 1 | 2 | 1 |  |
| Oc1cccc2cccnc12 [Compound 97, 8-hydroxyquinoline] | 1 | 8 | 1 | 1 | 2 | 2 |  |
| Oc1cccc2cccnc12 [Compound 41, 8-hydroxyquinoline] | 1 | 4 | 1 | 1 | 2 | 1 |  |
| Cc1ccnc2c(O)cccc12 [Compound 14] |  |  |  |  |  | 0.125 | MIC [1]: 0.5 µg/mL (≈ 3.14 µM); MIC (E. faecalis ATCC 29212): 64 µg/mL (≈ 402 µM); MIC (S. pneumoniae ATCC 6301): 1 µg/mL (≈ 6.28 µM); MIC [2]: 1 µg/mL (≈ 6.28 µM); MIC (E. faecium CT-26): 4 µg/mL (≈ 25.1 µM) |
| Oc1ccc(Cl)c2cccnc12 [Compound 13] |  | 64 |  |  |  | 0.125 | MIC [1]: 0.25 µg/mL (≈ 1.39 µM); MIC (S. pneumoniae ATCC 6301): 1 µg/mL (≈ 5.57 µM); MIC [2]: 1 µg/mL (≈ 5.57 µM); MIC (E. faecium CT-26): 2 µg/mL (≈ 11.1 µM) |
| 4-hydroxybenzimidazole [Compound 120] |  |  |  |  |  |  | MIC E. faecalis ATCC 29212 (E. faecalis ATCC 29212; Table 2): 8 micrograms per ml; MIC S. epidermidis ATCC 12228 ([2]; Table 2): 4 micrograms per ml; MIC E. faecium CT-26 (E. faecium CT-26; Table 2): 8 micrograms per ml; MIC S. aureus ATCC 29213 (S. aureus ATCC 29213; Table 2): 0.125 micrograms per ml |
| Oc1cccc2cccnc12 [Compound 30, 8-hydroxyquinoline] |  | 2 |  | 0.5 | 2 | 1 |  |
| Oc1cccc2cccnc12 [Compound 76, 8-hydroxyquinoline] |  | 8 |  | 1 | 4 | 2 |  |
| O=C(O)c1cc(O)c2ccccc2n1 [Compound 31] |  |  |  |  |  |  | MIC (E. faecalis ATCC 29212): 2 µg/mL (≈ 10.6 µM); MIC [2]: 1 µg/mL (≈ 5.29 µM); MIC (E. faecium CT-26): 1 µg/mL (≈ 5.29 µM); MIC (S. aureus ATCC 29213): 1 µg/mL (≈ 5.29 µM) |
| Oc1cccc2nc[nH]c12 [Compound 11, 4-hydroxybenzimidazole] |  |  |  |  |  |  | MIC (E. faecalis ATCC 29212): 8 µg/mL (≈ 59.6 µM); MIC [2]: 4 µg/mL (≈ 29.8 µM); MIC (E. faecium CT-26): 8 µg/mL (≈ 59.6 µM); MIC (S. aureus ATCC 29213): 0.125 µg/mL (≈ 0.932 µM) |
| CB(Oc1cccc2cccnc12)c1cccs1 [Compound 26, (2-Thienyl)methylborinic acid 8-hydroxyquinoline ester] |  | 4 |  | 1 | 4 | 0.5 |  |
